Measured values reported in US20240317735A1, “HYDROISOQUINOLINE OR HYDRONAPHTHYRIDINE COMPOUNDS FOR THE TREATMENT OF AUTOIMMUNE DISEASE” (Hoffmann-La Roche Inc., priority 2020, published 2024).

target: T1, human TLR8 (Homo sapiens, UniProt Q9NR97); assay: HEK293-Blue-hTLR-8 cells assay (SEAP reporter, R848 stimulation); assay type: cell-based; conditions: HEK293-Blue-hTLR8 cells, R848, 20 hrs; read-out: HEK/hTLR8 IC50
T1 construct: host or cells: HEK293 (HEK-Blue hTLR8)
T1 sequence (Q9NR97 27-1041): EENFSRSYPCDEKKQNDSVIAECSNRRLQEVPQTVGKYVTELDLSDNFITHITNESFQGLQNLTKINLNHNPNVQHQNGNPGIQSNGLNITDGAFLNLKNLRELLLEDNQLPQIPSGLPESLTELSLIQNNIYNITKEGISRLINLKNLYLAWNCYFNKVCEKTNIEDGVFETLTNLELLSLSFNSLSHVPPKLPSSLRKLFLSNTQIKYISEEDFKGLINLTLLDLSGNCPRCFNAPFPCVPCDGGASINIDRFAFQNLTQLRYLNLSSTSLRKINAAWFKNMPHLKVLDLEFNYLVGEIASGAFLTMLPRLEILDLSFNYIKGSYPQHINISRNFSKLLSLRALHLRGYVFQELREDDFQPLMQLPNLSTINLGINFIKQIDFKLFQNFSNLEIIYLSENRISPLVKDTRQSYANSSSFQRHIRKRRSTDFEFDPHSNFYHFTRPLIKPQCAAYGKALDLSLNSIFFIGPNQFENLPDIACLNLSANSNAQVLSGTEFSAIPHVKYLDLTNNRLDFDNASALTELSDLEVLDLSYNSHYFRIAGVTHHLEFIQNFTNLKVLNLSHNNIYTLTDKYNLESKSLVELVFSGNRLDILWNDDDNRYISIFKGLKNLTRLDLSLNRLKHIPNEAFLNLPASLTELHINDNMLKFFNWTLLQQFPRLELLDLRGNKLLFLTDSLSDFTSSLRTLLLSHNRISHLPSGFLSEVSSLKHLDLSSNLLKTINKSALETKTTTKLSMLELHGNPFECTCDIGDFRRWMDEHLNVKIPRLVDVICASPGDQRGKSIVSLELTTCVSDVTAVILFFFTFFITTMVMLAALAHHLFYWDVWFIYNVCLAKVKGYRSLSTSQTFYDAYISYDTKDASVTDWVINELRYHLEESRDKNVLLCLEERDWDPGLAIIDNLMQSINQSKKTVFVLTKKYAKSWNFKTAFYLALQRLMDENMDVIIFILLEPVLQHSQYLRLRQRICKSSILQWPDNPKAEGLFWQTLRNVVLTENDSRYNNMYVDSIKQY
Method: The following tests were carried out in order to determine the activity of the compounds of formula (I) and (Ia) in HEK293-Blue-hTLR-7/8/9 cells assay.
A stable HEK293-Blue-hTLR-8 cell line was purchased from InvivoGen (Cat. #: hkb-htlr8, San Diego, California, USA). These cells were originally designed for studying the stimulation of human TLR8 by monitoring the activation of NF-κB. A SEAP (secreted embryonic alkaline phosphatase) reporter gene was placed under the control of the IFN-β minimal promoter fused to five NF-κB and AP-1-binding sites. The SEAP was induced by activating NF-κB and AP-1 via stimulating HEK-Blue hTLR8 cells with TLR8 ligands. Therefore the reporter expression was declined by TLR8 antagonist under the stimulation of a ligand, such as R848, for incubation of 20 hrs. The cell culture supernatant SEAP reporter activity was determined using QUANTI-Blue™ kit (Cat. #: rep-qb1, Invivogen, San Diego, Ca, USA) at a wavelength of 640 nm, a detection medium that turns purple or blue in the presence of alkaline phosphatase.
HEK293-Blue-hTLR8 cells were incubated at a density of 250,000˜450,000 cells/mL in a volume of 170 μL in a 96-well plate in Dulbecco's Modified Eagle's medium (DMEM) containing 4.5 g/L glucose, […] penicillin, […], […] Normocin, 2 mM L-glutamine, 10% (v/v) heat-inactivated fetal bovine serum with addition of 20 μL test compound in a serial dilution in the presence of final DMSO at 1% and 10 μL of 60 uM R848 in above DMEM, perform incubation under 37° C. in a C02 incubator for 20 hrs. Then 20 μL of the supernatant from each well was incubated with 180 μL Quanti-blue substrate solution at 37° C. for 2 hrs and the absorbance was read at 620-655 nm using a spectrophotometer. The signaling pathway that TLR8 activation leads to downstream NF-κB activation has been widely accepted, and therefore similar reporter assay was modified for evaluating TLR8 antagonist.

Question: With `CO[C@@H]1CN(C2CCN(c3ccc4c(c3)[C@@H](C)CN(c3ccnc5c3cnn5C)C4)CC2)C[C@H]1N` [Example 11, (3R,4R)-4-methoxy-1-[1-[(4R)-4-methyl-2-(1-methylpyrazolo[3,4-b]pyridin-4-yl)-3,4-dihydro-1H-isoquinolin-6-yl]-4-piperidyl]pyrrolidin-3-amine] as the compound, how does the IC50 read?
Answer: < 0.3 nM

Question: How did the IC50 turn out when `C[C@H]1CN(c2ccnc3c2cnn3C)Cc2ccc(N3C[C@]4(CCNC4)CC3=O)cc21` (single isomer, unassigned) [Example 54] was run?
Answer: 5 nM

Question: `C[C@H]1CN(c2ccnc3c2cnn3C)Cc2ccc(N3C[C@H]4CCNC[C@H]4C3=O)cc21` (single isomer, unassigned) [Example 56] was tested. Which IC50 did it give?
Answer: 7 nM

Question: Which IC50 does the source give for `CC1CN(c2ccnc3c2cnn3C)Cc2ccc(N3CCC4(CCNCC4)CC3)cc21` (stereo not drawn) [Example 4, 3-[4-methyl-2-(1-methylpyrazolo[3,4-b]pyridin-4-yl)-3,4-dihydro-1H-isoquinolin-6-yl]-3,9-diazaspiro[5.5]undecane] here?
Answer: 7 nM

Question: With `C[C@H]1CN(c2ccnc3c2cnn3C)Cc2ccc(N3C[C@@H]4CNCCN4C3=O)cc21` [Example 25, (8aS)-2-[(4R)-4-methyl-2-(1-methylpyrazolo[3,4-b]pyridin-4-yl)-3,4-dihydro-1H-isoquinolin-6-yl]-1,5,6,7,8,8a-hexahydroimidazo[1,5-a]pyrazin-3-one] as the compound, how does the IC50 read?
Answer: < 0.3 nM

Question: How did the IC50 turn out when `Cc1cc(N2Cc3ccc(OC[C@H]4CNCCN4)cc3[C@@H](C)C2)c2cnn(C)c2n1` [Example 30, (4R)-2-(1,6-dimethylpyrazolo[3,4-b]pyridin-4-yl)-4-methyl-6-[[(2R)-piperazin-2-yl]methoxy]-3,4-dihydro-1H-isoquinoline] was run?
Answer: 2 nM

Question: With `C[C@H]1CN(c2ccnc3c2cnn3C)Cc2ccc(OC[C@@H]3CNCCN3C)cc21` [Example 44, (4R)-4-methyl-2-(1-methylpyrazolo[3,4-b]pyridin-4-yl)-6-[[(2S)-1-methylpiperazin-2-yl]methoxy]-3,4-dihydro-1H-isoquinoline] as the compound, how does the IC50 read?
Answer: 5 nM

Question: `C[C@H]1CN(c2ccnc3c2cnn3C)Cc2ccc(N3CCN(C(=O)C4CNCCO4)CC3)cc21` (stereo partly drawn) [Example 12, morpholin-2-yl-[4-[(4R)-4-methyl-2-(1-methylpyrazolo[3,4-b]pyridin-4-yl)-3,4-dihydro-1H-isoquinolin-6-yl]piperazin-1-yl]methanone] was tested. Which IC50 did it give?
Answer: 8 nM

Question: `Cn1ncc2c(N3Cc4ccc(N5CCC6(CCNCC6)CC5)cc4C(C)(C)C3)ccnc21` [Example 6, 3-[4,4-dimethyl-2-(1-methylpyrazolo[3,4-b]pyridin-4-yl)-1,3-dihydroisoquinolin-6-yl]-3,9-diazaspiro[5.5]undecane] was tested. Which IC50 did it give?
Answer: 18 nM

Question: `COC[C@H]1CN(c2cc3c(cn2)CN(c2cc(C)nc4c2cnn4C)C[C@@H]3C)CCN1` [Example 81, (4R)-2-(1,6-dimethylpyrazolo[3,4-b]pyridin-4-yl)-4-methyl-6-[(3R)-3-(methoxymethyl)piperazin-1-yl]-3,4-dihydro-1H-2,7-naphthyridine] was tested. Which IC50 did it give?
Answer: 8 nM

Question: With `Cc1cc(N2Cc3ccc(N4CCC(O)(CN(C)C)CC4)nc3[C@@H](C)C2)c2cnn(C)c2n1` [Example 61, 4-[(dimethylamino)methyl]-1-[(8S)-6-(1,6-dimethylpyrazolo[3,4-b]pyridin-4-yl)-8-methyl-7,8-dihydro-5H-1,6-naphthyridin-2-yl]piperidin-4-ol] as the compound, how does the IC50 read?
Answer: 0.5 nM

Question: For `Cc1cc(N2Cc3ccc(N4CCC(N(C)C)CC4)nc3[C@@H](C)C2)c2cnn(C)c2n1` [Example 60, N,N-dimethyl-1-[(8S)-6-(1,6-dimethylpyrazolo[3,4-b]pyridin-4-yl)-8-methyl-7,8-dihydro-5H-1,6-naphthyridin-2-yl]piperidin-4-amine], which IC50 is on record?
Answer: 0.5 nM

Question: With `CO[C@H]1CN(c2ccc3c(n2)[C@@H](C)CN(c2cc(C)nc4c2cnn4C)C3)CC[C@@H]1N` [Example 65, (3S,4S)-3-methoxy-1-[(8S)-6-(1,6-dimethylpyrazolo[3,4-b]pyridin-4-yl)-8-methyl-7,8-dihydro-5H-1,6-naphthyridin-2-yl]piperidin-4-amine] as the compound, how does the IC50 read?
Answer: 1 nM

Question: Which IC50 does the source give for `C[C@H]1CN(c2ccnc3c2cnn3C)Cc2ccc(N3C[C@@H]4CCNC[C@@H]4C3=O)cc21` (single isomer, unassigned) [Example 57] here?
Answer: 24 nM

Question: `Cc1cc(N2Cc3ccc(N4CCC5(CCNCC5)CC4)cc3C(C)C2)c2cnn(C)c2n1` (stereo not drawn) [Example 5, 3-[2-(1,6-dimethylpyrazolo[3,4-b]pyridin-4-yl)-4-methyl-3,4-dihydro-1H-isoquinolin-6-yl]-3,9-diazaspiro[5.5]undecane] was tested. Which IC50 did it give?
Answer: 10 nM

Question: Which IC50 does the source give for `C[C@H]1CN(c2ccnc3c2cnn3C)Cc2ccc(N3CCC(N4CCNCC4)CC3)cc21` [Example 10, (4R)-4-methyl-2-(1-methylpyrazolo[3,4-b]pyridin-4-yl)-6-(4-piperazin-1-yl-1-piperidyl)-3,4-dihydro-1H-isoquinoline] here?
Answer: 1 nM

Question: For `C[C@H]1CN(c2ccnc3c2cnn3C)Cc2ccc(N3CCN(S(=O)(=O)C4CCNC4)CC3)cc21` (stereo partly drawn) [Example 33, (4R)-4-methyl-2-(1-methylpyrazolo[3,4-b]pyridin-4-yl)-6-(4-pyrrolidin-3-ylsulfonylpiperazin-1-yl)-3,4-dihydro-1H-isoquinoline], which IC50 is on record?
Answer: 15 nM

Question: For `Cc1cc(N2Cc3cnc(N4CCNC5(CC5)C4)cc3[C@@H](C)C2)c2cnn(C)c2n1` [Example 75, (4R)-6-(4,7-diazaspiro[2.5]octan-7-yl)-2-(1,6-dimethylpyrazolo[3,4-b]pyridin-4-yl)-4-methyl-3,4-dihydro-1H-2,7-naphthyridine], which IC50 is on record?
Answer: 13 nM

Question: For `C[C@H]1CN(c2ccnc3c2cnn3C)Cc2ccc(N3CCNC(CO)C3)cc21` (stereo partly drawn) [Example 49, [4-[(4R)-4-methyl-2-(1-methylpyrazolo[3,4-b]pyridin-4-yl)-3,4-dihydro-1H-isoquinolin-6-yl]piperazin-2-yl]methanol], which IC50 is on record?
Answer: 2 nM

Question: For `C[C@H]1CN(c2ccnc3c2cnn3C)Cc2ccc(N3CC4CNC[C@H]4C3=O)cc21` (relative stereo) [Example 17, cis-5-[(4R)-4-methyl-2-(1-methylpyrazolo[3,4-b]pyridin-4-yl)-3,4-dihydro-1H-isoquinolin-6-yl]-1,2,3,3a,6,6a-hexahydropyrrolo[3,4-c]pyrrol-4-one], which IC50 is on record?
Answer: 11 nM

Question: For `C[C@H]1CN(c2ccnc3c2cnn3C)Cc2ccc(N3C[C@H]4CNCCN4C3=O)cc21` [Example 24, (8aR)-2-[(4R)-4-methyl-2-(1-methylpyrazolo[3,4-b]pyridin-4-yl)-3,4-dihydro-1H-isoquinolin-6-yl]-1,5,6,7,8,8a-hexahydroimidazo[1,5-a]pyrazin-3-one], which IC50 is on record?
Answer: 2 nM
